Results: patent US20260262643A1, “HERBICIDAL BENZOXAZINES” (FMC CORPORATION, priority 2022, published 2026)

What was measured:
blackgrass [1] = assay: Test A preemergence; assay type: in vivo, Alopecurus myosuroides
Method in brief: (§1)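 Greenhouse pot test, 10 days. Compound (non-phytotoxic solvent, surfactant) sprayed on soil at seeding or on seedlings at one- to two-leaf stage. Visual injury rated 0–100 against untreated plants.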

corn [2] = assay: Test A preemergence; assay type: in vivo, Zea mays
Method in brief: as §1

foxtail, giant [3] = assay: Test A preemergence; assay type: in vivo, Setaria faberi
Method in brief: as §1

goosegrass [4] = assay: Test A preemergence; assay type: in vivo, Eleusine indica
Method in brief: as §1

kochia [5] = assay: Test A preemergence; assay type: in vivo, Bassia scoparia
Method in brief: as §1

oat, wild [6] = assay: Test A preemergence; assay type: in vivo, Avena fatua
Method in brief: as §1

pigweed, palmer [7] = assay: Test A preemergence; assay type: in vivo, Amaranthus palmeri
Method in brief: as §1

ragweed [8] = assay: Test A preemergence; assay type: in vivo, Ambrosia artemisiifolia
Method in brief: as §1

ryegrass, Italian [9] = assay: Test A preemergence; assay type: in vivo, Lolium multiflorum
Method in brief: as §1

soybean [10] = assay: Test A preemergence; assay type: in vivo, Glycine max
Method in brief: as §1

wheat [11] = assay: Test A preemergence; assay type: in vivo, Triticum aestivum
Method in brief: as §1

blackgrass [12] = assay: Test A postemergence; assay type: in vivo, Alopecurus myosuroides
Method in brief: as §1

corn [13] = assay: Test A postemergence; assay type: in vivo, Zea mays
Method in brief: as §1

foxtail, giant [14] = assay: Test A postemergence; assay type: in vivo, Setaria faberi
Method in brief: as §1

goosegrass [15] = assay: Test A postemergence; assay type: in vivo, Eleusine indica
Method in brief: as §1

kochia [16] = assay: Test A postemergence; assay type: in vivo, Bassia scoparia
Method in brief: as §1

oat, wild [17] = assay: Test A postemergence; assay type: in vivo, Avena fatua
Method in brief: as §1

pigweed, palmer [18] = assay: Test A postemergence; assay type: in vivo, Amaranthus palmeri
Method in brief: as §1

ragweed [19] = assay: Test A postemergence; assay type: in vivo, Ambrosia artemisiifolia
Method in brief: as §1

ryegrass, Italian [20] = assay: Test A postemergence; assay type: in vivo, Lolium multiflorum
Method in brief: as §1

soybean [21] = assay: Test A postemergence; assay type: in vivo, Glycine max
Method in brief: as §1

wheat [22] = assay: Test A postemergence; assay type: in vivo, Triticum aestivum
Method in brief: as §1

galium = assay: Test A postemergence; assay type: in vivo, Galium aparine
Method in brief: as §1

horseweed = assay: Test A postemergence; assay type: in vivo, Erigeron canadensis
Method in brief: as §1

barnyardgrass = assay: Test B flooded paddy test; assay type: in vivo, Echinochloa crus-galli; conditions: 250 g ai/ha, Flood, 13 days, 0 to 100 scale (0 no effect, 100 complete control)
Method in brief: (§2)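 Flooded to 3 cm at treatment time, 2-leaf plants got the test compound applied straight into the paddy water. They then stayed under constant flood in a greenhouse for 13 days. Ratings used a 0 to 100 visual scale.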

ducksalad = assay: Test B flooded paddy test; assay type: in vivo, Heteranthera limosa; conditions: 250 g ai/ha, Flood, 13 days, 0 to 100 scale (0 no effect, 100 complete control)
Method in brief: as §2

rice = assay: Test B flooded paddy test; assay type: in vivo, Oryza sativa; conditions: 250 g ai/ha, Flood, 13 days, 0 to 100 scale (0 no effect, 100 complete control)
Method in brief: as §2

sedge, umbrella = assay: Test B flooded paddy test; assay type: in vivo, Cyperus difformis; conditions: 250 g ai/ha, Flood, 13 days, 0 to 100 scale (0 no effect, 100 complete control)
Method in brief: as §2

[23] = 125 g ai/ha, visual injury after 10 days, 0 to 100 scale, 0 is no effect, 100 is complete control
[24] = 500 g ai/ha, 0 to 100 scale (0 no effect, 100 complete control), 10 days
[25] = 125 g ai/ha, postemergence, 10 days, visual injury, 0 to 100 scale (0 no effect, 100 complete control)
[26] = 500 g ai/ha, Postemergence, 0 to 100 scale

Cc1cccc2c1O[C@@H](C)CN2C(=O)c1cc(-n2cncn2)ccc1F [Compound 50]
60: Plant response rating, Corn (corn [13]; [26]) | Plant response rating, Galium (galium; [25])
40: Plant response rating, Blackgrass (blackgrass [1]; [23]) | Plant response rating, Ragweed (ragweed [19]; [26]) | Plant response rating, Wheat (wheat [22]; [25])
10: Plant response rating, Kochia (kochia [5]; [24]) | Plant response rating, Kochia (kochia [16]; [25]) | Plant response rating, Horseweed (horseweed; [26])
70: Plant response rating, Blackgrass (blackgrass [12]; [26]) | Plant response rating, Foxtail, Giant (foxtail, giant [14]; [25]) | Plant response rating, Kochia (kochia [16]; [26]) | Plant response rating, Wheat (wheat [22]; [26])
30: Plant response rating, Ragweed (ragweed [8]; [24]) | Plant response rating, Soybean (soybean [10]; [23]) | Plant response rating, Corn (corn [13]; [25]) | Plant response rating, Pigweed, Palmer (pigweed, palmer [18]; [25]) | Plant response rating, Pigweed, Palmer (pigweed, palmer [18]; [26])
80: Plant response rating, Blackgrass (blackgrass [1]; [24]) | Plant response rating, Ryegrass, Italian (ryegrass, Italian [9]; [23]) | Plant response rating, Ryegrass, Italian (ryegrass, Italian [20]; [26])
0: Plant response rating, Corn (corn [2]; [23]) | Plant response rating, Corn (corn [2]; [24]) | Plant response rating, Kochia (kochia [5]; [23]) | Plant response rating, Pigweed, Palmer (pigweed, palmer [7]; [23]) | Plant response rating, Ragweed (ragweed [8]; [23]) | Plant response rating, Wheat (wheat [11]; [23]) | Plant response rating, Horseweed (horseweed; [25]) | Plant response rating, Barnyardgrass (barnyardgrass) | Plant response rating, Ducksalad (ducksalad) | Plant response rating, Rice (rice) | Plant response rating, Sedge, Umbrella (sedge, umbrella)
90: Plant response rating, Foxtail, Giant (foxtail, giant [3]; [23]) | Plant response rating, Goosegrass (goosegrass [4]; [23]) | Plant response rating, Oat, Wild (oat, wild [6]; [24]) | Plant response rating, Ryegrass, Italian (ryegrass, Italian [9]; [24]) | Plant response rating, Soybean (soybean [10]; [24]) | Plant response rating, Foxtail, Giant (foxtail, giant [14]; [26]) | Plant response rating, Goosegrass (goosegrass [15]; [26])
50: Plant response rating, Wheat (wheat [11]; [24]) | Plant response rating, Blackgrass (blackgrass [12]; [25]) | Plant response rating, Goosegrass (goosegrass [15]; [25]) | Plant response rating, Oat, Wild (oat, wild [17]; [26]) | Plant response rating, Ryegrass, Italian (ryegrass, Italian [20]; [25])
100: Plant response rating, Foxtail, Giant (foxtail, giant [3]; [24]) | Plant response rating, Goosegrass (goosegrass [4]; [24]) | Plant response rating, Pigweed, Palmer (pigweed, palmer [7]; [24]) | Plant response rating, Soybean (soybean [21]; [25]) | Plant response rating, Soybean (soybean [21]; [26]) | Plant response rating, Galium (galium; [26])
20: Plant response rating, Oat, Wild (oat, wild [6]; [23]) | Plant response rating, Oat, Wild (oat, wild [17]; [25]) | Plant response rating, Ragweed (ragweed [19]; [25])

Cc1cccc2c1O[C@@H](C)CN2C(=O)c1cccc(-n2ncnc2C(C)C)c1 [Compound 56]
0: Plant response rating, Blackgrass (blackgrass [1]; [23]) | Plant response rating, Blackgrass (blackgrass [1]; [24]) | Plant response rating, Corn (corn [2]; [23]) | Plant response rating, Corn (corn [2]; [24]) | Plant response rating, Foxtail, Giant (foxtail, giant [3]; [23]) | Plant response rating, Foxtail, Giant (foxtail, giant [3]; [24]) | Plant response rating, Goosegrass (goosegrass [4]; [23]) | Plant response rating, Goosegrass (goosegrass [4]; [24]) | Plant response rating, Kochia (kochia [5]; [23]) | Plant response rating, Kochia (kochia [5]; [24]) | Plant response rating, Oat, Wild (oat, wild [6]; [23]) | Plant response rating, Oat, Wild (oat, wild [6]; [24]) | Plant response rating, Pigweed, Palmer (pigweed, palmer [7]; [23]) | Plant response rating, Pigweed, Palmer (pigweed, palmer [7]; [24]) | Plant response rating, Ragweed (ragweed [8]; [23]) | Plant response rating, Ragweed (ragweed [8]; [24]) | Plant response rating, Ryegrass, Italian (ryegrass, Italian [9]; [23]) | Plant response rating, Ryegrass, Italian (ryegrass, Italian [9]; [24]) | Plant response rating, Soybean (soybean [10]; [23]) | Plant response rating, Soybean (soybean [10]; [24]) | Plant response rating, Wheat (wheat [11]; [23]) | Plant response rating, Wheat (wheat [11]; [24]) | Plant response rating, Blackgrass (blackgrass [12]; [25]) | Plant response rating, Blackgrass (blackgrass [12]; [26]) | Plant response rating, Corn (corn [13]; [25]) | Plant response rating, Corn (corn [13]; [26]) | Plant response rating, Foxtail, Giant (foxtail, giant [14]; [25]) | Plant response rating, Foxtail, Giant (foxtail, giant [14]; [26]) | Plant response rating, Goosegrass (goosegrass [15]; [25]) | Plant response rating, Goosegrass (goosegrass [15]; [26]) | Plant response rating, Kochia (kochia [16]; [25]) | Plant response rating, Kochia (kochia [16]; [26]) | Plant response rating, Oat, Wild (oat, wild [17]; [25]) | Plant response rating, Oat, Wild (oat, wild [17]; [26]) | Plant response rating, Pigweed, Palmer (pigweed, palmer [18]; [25]) | Plant response rating, Pigweed, Palmer (pigweed, palmer [18]; [26]) | Plant response rating, Ragweed (ragweed [19]; [25]) | Plant response rating, Ragweed (ragweed [19]; [26]) | Plant response rating, Ryegrass, Italian (ryegrass, Italian [20]; [25]) | Plant response rating, Ryegrass, Italian (ryegrass, Italian [20]; [26]) | Plant response rating, Soybean (soybean [21]; [25]) | Plant response rating, Wheat (wheat [22]; [25]) | Plant response rating, Wheat (wheat [22]; [26]) | Plant response rating, Galium (galium; [25]) | Plant response rating, Galium (galium; [26]) | Plant response rating, Horseweed (horseweed; [25]) | Plant response rating, Horseweed (horseweed; [26]) | Plant response rating, Barnyardgrass (barnyardgrass) | Plant response rating, Ducksalad (ducksalad) | Plant response rating, Rice (rice) | Plant response rating, Sedge, Umbrella (sedge, umbrella)
10: Plant response rating, Soybean (soybean [21]; [26])

CC1CN(C(=O)c2cc(-n3cncn3)ccc2F)c2cccc(Cl)c2O1 (stereo not drawn) [Compound 39]
30: Plant response rating, Corn (corn [2]; [24]) | Plant response rating, Soybean (soybean [10]; [23]) | Plant response rating, Wheat (wheat [11]; [24]) | Plant response rating, Goosegrass (goosegrass [15]; [25]) | Plant response rating, Kochia (kochia [16]; [25])
20: Plant response rating, Ragweed (ragweed [8]; [24]) | Plant response rating, Pigweed, Palmer (pigweed, palmer [18]; [25]) | Plant response rating, Horseweed (horseweed; [26])
10: Plant response rating, Ragweed (ragweed [8]; [23]) | Plant response rating, Foxtail, Giant (foxtail, giant [14]; [25]) | Plant response rating, Wheat (wheat [22]; [25])
100: Plant response rating, Foxtail, Giant (foxtail, giant [3]; [24]) | Plant response rating, Goosegrass (goosegrass [4]; [24]) | Plant response rating, Ryegrass, Italian (ryegrass, Italian [9]; [24]) | Plant response rating, Ryegrass, Italian (ryegrass, Italian [20]; [26]) | Plant response rating, Soybean (soybean [21]; [25]) | Plant response rating, Soybean (soybean [21]; [26]) | Plant response rating, Galium (galium; [26])
40: Plant response rating, Ryegrass, Italian (ryegrass, Italian [9]; [23]) | Plant response rating, Oat, Wild (oat, wild [17]; [25]) | Plant response rating, Pigweed, Palmer (pigweed, palmer [18]; [26])
50: Plant response rating, Kochia (kochia [5]; [24]) | Plant response rating, Pigweed, Palmer (pigweed, palmer [7]; [23]) | Plant response rating, Ryegrass, Italian (ryegrass, Italian [20]; [25]) | Plant response rating, Wheat (wheat [22]; [26])
60: Plant response rating, Blackgrass (blackgrass [1]; [24]) | Plant response rating, Blackgrass (blackgrass [12]; [25]) | Plant response rating, Blackgrass (blackgrass [12]; [26]) | Plant response rating, Goosegrass (goosegrass [15]; [26]) | Plant response rating, Kochia (kochia [16]; [26]) | Plant response rating, Ragweed (ragweed [19]; [26])
90: Plant response rating, Foxtail, Giant (foxtail, giant [3]; [23]) | Plant response rating, Goosegrass (goosegrass [4]; [23]) | Plant response rating, Pigweed, Palmer (pigweed, palmer [7]; [24]) | Plant response rating, Foxtail, Giant (foxtail, giant [14]; [26]) | Plant response rating, Oat, Wild (oat, wild [17]; [26]) | Plant response rating, Galium (galium; [25])
70: Plant response rating, Oat, Wild (oat, wild [6]; [24]) | Plant response rating, Soybean (soybean [10]; [24]) | Plant response rating, Corn (corn [13]; [26])
0: Plant response rating, Blackgrass (blackgrass [1]; [23]) | Plant response rating, Corn (corn [2]; [23]) | Plant response rating, Kochia (kochia [5]; [23]) | Plant response rating, Oat, Wild (oat, wild [6]; [23]) | Plant response rating, Wheat (wheat [11]; [23]) | Plant response rating, Corn (corn [13]; [25]) | Plant response rating, Ragweed (ragweed [19]; [25]) | Plant response rating, Horseweed (horseweed; [25]) | Plant response rating, Barnyardgrass (barnyardgrass) | Plant response rating, Ducksalad (ducksalad) | Plant response rating, Rice (rice) | Plant response rating, Sedge, Umbrella (sedge, umbrella)
